Source: PubChem BioAssay (NCI)
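Dose response: 5 concentrations. Exposure: 48 h. Format: 96-well plates. Endpoint: linear interpolation; highest concentration if not reached. The concentration for full growth arrest is given as TGI.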

Legend:
Assay in all cases: growth of human tumour cells (NCI), 48 h
UACC-257 melanoma = tested on: UACC-257 melanoma
SK-OV-3 ovarian = tested on: SK-OV-3 ovarian
IGROV1 ovarian = tested on: IGROV1 ovarian
K-562 leukemia = tested on: K-562 leukemia
MALME-3M melanoma = tested on: MALME-3M melanoma
HOP-92 NSCLC = tested on: HOP-92 NSCLC
NCI-H23 lung = tested on: NCI-H23 lung
KM12 colon = tested on: KM12 colon
OVCAR-4 ovarian = tested on: OVCAR-4 ovarian
NCI-H522 lung = tested on: NCI-H522 lung
OVCAR-3 ovarian = tested on: OVCAR-3 ovarian
SNB-19 CNS = tested on: SNB-19 CNS
COLO 205 colon = tested on: COLO 205 colon
SK-MEL-2 melanoma = tested on: SK-MEL-2 melanoma
RPMI-8226 leukemia = tested on: RPMI-8226 leukemia
EKVX NSCLC = tested on: EKVX NSCLC
OVCAR-8 ovarian = tested on: OVCAR-8 ovarian
HCC-2998 colon = tested on: HCC-2998 colon
DMS 273 small cell lung = tested on: DMS 273 small cell lung
M14 melanoma = tested on: M14 melanoma
SF-295 CNS = tested on: SF-295 CNS
KM20L2 colon = tested on: KM20L2 colon
RXF 393 renal = tested on: RXF 393 renal
SNB-75 CNS = tested on: SNB-75 CNS
OVCAR-5 ovarian = tested on: OVCAR-5 ovarian
HOP-62 NSCLC = tested on: HOP-62 NSCLC
LXFL 529 NSCLC = tested on: LXFL 529 NSCLC
SF-268 CNS = tested on: SF-268 CNS
SNB-78 CNS = tested on: SNB-78 CNS
RXF-631 renal = tested on: RXF-631 renal
TK-10 renal = tested on: TK-10 renal
HL-60(TB) leukemia = tested on: HL-60(TB) leukemia
SW-620 colon = tested on: SW-620 colon
SK-MEL-28 melanoma = tested on: SK-MEL-28 melanoma
XF 498 CNS = tested on: XF 498 CNS
UO-31 renal = tested on: UO-31 renal
NCI-H460 lung = tested on: NCI-H460 lung
ACHN renal = tested on: ACHN renal
786-0 renal = tested on: 786-0 renal
SN12C renal = tested on: SN12C renal
DLD-1 colon = tested on: DLD-1 colon
LOX IMVI melanoma = tested on: LOX IMVI melanoma
HCT-15 colon = tested on: HCT-15 colon
SK-MEL-5 melanoma = tested on: SK-MEL-5 melanoma
CAKI-1 renal = tested on: CAKI-1 renal
UACC-62 melanoma = tested on: UACC-62 melanoma
CCRF-CEM leukemia = tested on: CCRF-CEM leukemia
A549 NSCLC = tested on: A549 NSCLC
MOLT-4 leukemia = tested on: MOLT-4 leukemia
SR leukemia = tested on: SR leukemia
HCT-116 colon = tested on: HCT-116 colon
NCI-H226 lung = tested on: NCI-H226 lung
HT29 colon = tested on: HT29 colon
M19-MEL melanoma = tested on: M19-MEL melanoma
DMS 114 small cell lung = tested on: DMS 114 small cell lung
A498 renal = tested on: A498 renal
HOP-18 NSCLC = tested on: HOP-18 NSCLC
SF-539 CNS = tested on: SF-539 CNS

Measured: TGI

COc1ccc2oc(-c3cc4cc(OC)ccc4o3)cc2c1
> 100 µM: UACC-257 melanoma | SK-OV-3 ovarian | IGROV1 ovarian | K-562 leukemia | MALME-3M melanoma | HOP-92 NSCLC | NCI-H23 lung | KM12 colon | OVCAR-4 ovarian | NCI-H522 lung | OVCAR-3 ovarian | SNB-19 CNS | COLO 205 colon | SK-MEL-2 melanoma | RPMI-8226 leukemia | EKVX NSCLC | OVCAR-8 ovarian | HCC-2998 colon | DMS 273 small cell lung | M14 melanoma | SF-295 CNS | KM20L2 colon | RXF 393 renal | SNB-75 CNS | OVCAR-5 ovarian | HOP-62 NSCLC | LXFL 529 NSCLC | SF-268 CNS | SNB-78 CNS | RXF-631 renal | TK-10 renal | HL-60(TB) leukemia | SW-620 colon | SK-MEL-28 melanoma | XF 498 CNS | UO-31 renal | NCI-H460 lung | ACHN renal | 786-0 renal | SN12C renal | DLD-1 colon | LOX IMVI melanoma | HCT-15 colon | SK-MEL-5 melanoma | CAKI-1 renal | UACC-62 melanoma | CCRF-CEM leukemia | A549 NSCLC | MOLT-4 leukemia

CCOc1ccc(/C=N\N2C(=O)c3ccccc3C2=O)cc1
> 100 µM: UACC-257 melanoma | IGROV1 ovarian | SR leukemia | HCT-116 colon | K-562 leukemia | MALME-3M melanoma | HOP-92 NSCLC | NCI-H23 lung | KM12 colon | OVCAR-4 ovarian | OVCAR-3 ovarian | NCI-H226 lung | HT29 colon | SNB-19 CNS | SK-MEL-2 melanoma | RPMI-8226 leukemia | EKVX NSCLC | OVCAR-8 ovarian | HCC-2998 colon | DMS 273 small cell lung | M19-MEL melanoma | M14 melanoma | SF-295 CNS | KM20L2 colon | RXF 393 renal | SNB-75 CNS | OVCAR-5 ovarian | HOP-62 NSCLC | LXFL 529 NSCLC | SF-268 CNS | SNB-78 CNS | RXF-631 renal | TK-10 renal | HL-60(TB) leukemia | DMS 114 small cell lung | SW-620 colon | SK-MEL-28 melanoma | XF 498 CNS | UO-31 renal | NCI-H460 lung | ACHN renal | 786-0 renal | A498 renal | SN12C renal | DLD-1 colon | LOX IMVI melanoma | HCT-15 colon | SK-MEL-5 melanoma | HOP-18 NSCLC | CAKI-1 renal | UACC-62 melanoma | CCRF-CEM leukemia | SF-539 CNS | A549 NSCLC | MOLT-4 leukemia
